One assay has as its system rat mesangial cells. Put plainly: IP3 formation ([3H]-inositol labeled mesangial cells) in response to LTD4 or LXA4. Type of assay: cell-based. As to conditions: Mesangial cell, 5 s. An excerpt: Statistical: ANOVA with Bonferroni modification for multiple pre-planned comparisons was used, within each group and between groups, to compare the changes in various whole kidney and microcirculatory indices which occurred from one period to another. In phosphoinositide generation studies, increases in [^3 H]-IP3 CPMs in agonist-treated cells were compared to vehicle-treated controls using upaired students t-test. Differences were considered significant at a p value ≤0.05. All values are reported as means ± SEM.
The isolated glomeruli were harvested from the surface of the 75 μm filter and washed twisce with the Hank's Media. […] Mesangial cell colonies were subcultured in 60 mm culture dishes, and experiments were carried out in cells from passages 2 to 12.
To label mesangial cells with [^3 H]-Inositol, cells grown to confluence in 60 mm culture dishes (10^6 cells/dish) were cultured in RPMI, supplemented with 10% dialyzed fetal calf serum and [^3 H]-inositol (1 μCi/ml) in a total incubation volume of 5 ml.
Reactions were terminated by the addition of cold 10% trichloroacetic acid (TCA), the supernatants subjected to ether extraction, and the aqueous phase titrated to neutral pH using 0.1 M Tris base. […] To ensure the reliability of the separation technique, the same methods for extraction and separation were applied to known amounts of [^3 H]-IP1, [^3 H]IP2, and [^3 H]-IP3 standards (New England Nuclear) mixed in a ratio of 3:2:1, respectively, and subjected to separation by HPLC.

Assay [1] concerns the target T1, mesangial cell LTD4 receptor (Rattus norvegicus, UniProt Q924T8).
T1 sequence (Q924T8 1-339): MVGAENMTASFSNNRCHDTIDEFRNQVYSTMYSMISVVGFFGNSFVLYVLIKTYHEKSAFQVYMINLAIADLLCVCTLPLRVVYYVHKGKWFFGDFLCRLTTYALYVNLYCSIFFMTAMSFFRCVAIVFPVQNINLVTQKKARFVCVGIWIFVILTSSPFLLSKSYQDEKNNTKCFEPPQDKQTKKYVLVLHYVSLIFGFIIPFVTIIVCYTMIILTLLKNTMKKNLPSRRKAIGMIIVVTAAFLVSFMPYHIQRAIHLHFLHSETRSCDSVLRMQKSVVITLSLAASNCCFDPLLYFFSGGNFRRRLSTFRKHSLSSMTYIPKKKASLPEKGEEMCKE
The conditions noted are these: 10 nM [3H]-LTD4.
Description: Mesangial Cell Culture: Rat mesangial cells were isolated and cultured as described previously (Harris, R. C., et al., J. Clin. Invest. 82:1028-1039(1988). Briefly, kidneys were exicesed from two young Sprague-Dawly rats under sterile conditions, and the cortices removed, minced, and washed several times in Hank's Balanced Salt Solution, containing 10 mM HEPES pH 7.4, amphotericin (0.25 μg/ml), and gentamicin (50 μg/ml). The tissue was then passed through consecutive sterilized stainless mesh filters with pore sizes of 212 μm, 150 μm, and then onto the final mesh of 75 μm. The isolated glomeruli were harvested from the surface of the 75 μm. The isolated glomeruli were harvested from the surface of the 75 μm filter and washed twisce with the Hank's Media. The glomeruli were suspended in RPMI 1640 Medium with 15% Fetal Bovine Serum (Givco), penicillin (100 μ/ml) and streptomycin (100 μg/ml) (Gibco), plated into 100 mm cell culture petri dishes, and incubated at 37° C. in a humidified atmosphere of 95% air and 5% air and 5% CO2. Mesangial cell colonies were subcultured in 60 mm culture dishes, and experiments were carried out in cells from passages 2 to 12. […] Cells were routinely grown in RPMI-1640, supplemented with 20% fetal calf serum, penicillin 100 μ/ml, and streptomycin 100 μg/ml.
Binding studies were routinely performed at 4° C. […] The cells were then dissolved with 1.0 ml of 1.0 N NaOH, neutralized with HCl, dissolved in 10 ml of Aquasol (New England Nuclear, Boston, MA), and the bound radioactivity was determined using a scintillation counter (Beckman Instruments). […] Cell density was determined by counting cells from replicate wells, using a Coulter Counter ZBi (Coulter Electronics, Inc., Hialeah, Fla.).

Assay [2] has as its system guinea pig ileum or trachea. As to conditions: cited from earlier work.
For another assay, the system named is neutrophils. The conditions noted are these: cited from earlier work.

On to `CCCCC[C@H](O)/C=C/C=C\C=C\C=C\[C@@H](O)[C@@H](O)CCCC(=O)O` [LXA4, (5S,6R,15S)-5,6,15-trihydroxy-7,9,13-trans-11-cis-eicosatetraenoic acid], for which the activation at 0.001 µM with rat mesangial cells (1 nM, 5 sec, n=3, p<0.05, read-out: increase in [3H]-IP3 counts over controls) is 46 ± 14%. Besides, in the assay on rat mesangial cells (10 nM LXA4, 5 sec, n=6, p<0.05, read-out: increase in [3H]-IP3 counts over controls), the activation at 0.01 µM turned out to be 50 ± 21%. For the same compound, the activation at 0.05 µM with rat mesangial cells (50 nM LXA4, 5 sec, n=3, p<0.05, read-out: increase in [3H]-IP3 counts over controls) was 44 ± 22%. Further, the activation at 0.1 µM in the assay on rat mesangial cells (100 nM, 5 sec, n=5, p<0.05, read-out: increase in [3H]-IP3 counts over controls) came out at 45 ± 26%. Moreover, in assay [1], the “Competition for [3H]-LTD4 binding compared with LTB4” value is listed as “several-fold greater than that of the non-peptidoleukotriene, LTB4” and the “Competition for [3H]-LTD4 binding compared with LTE4” value is listed as “equipotent to that of LTE4”. Besides, the “Contraction of ileum or trachea” value in assay [2] was “not guinea pig ileum or trachea”. The “Neutrophil superoxide generation, elastase release and leukocyte chemotaxis” value in the assay on neutrophils is “induce neutrophils to generate superoxide radicals, release elastase, and promote chemotaxis by leukocytes”.
